Measurements taken from patent US20240156800A1, “EP300 DEGRADER AND USES THEREOF IN NEUROBLASTOMA” (DANA-FARBER CANCER INSTITUTE, INC., priority 2021, published 2024).

Assays:
[1] = test system: Kelly, NGP and BE2C NB cells; test: Propidium iodide DNA flow cytometry (cell cycle, sub-G1); assay type: cell-based, human
Protocol: Cells were infected with lentiviruses encoding single guide RNAs (sgRNAs) or treated with compounds as described for the noted length of time. Cells were then liberated from adhesion to the plate using a sterile spatula (Coming®) followed by centrifugation, aspiration of media, and resuspension in hypotonic citrate-propidium iodide (PI) solution for 30 minutes at 37° C. (Tate et al. Cytometry 4:211-215 (1983)). Nuclei were stabilized using 5M NaCl prior to analysis on a FACSAria™ II (BD Biosciences). Analysis of cell cycle phases was performed using FlowJo® v10.7 (BD Biosciences).

[2] = test system: Kelly-Cas9 control or CRBN knockout cells; test: CellTiter-Glo assay of Kelly-Cas9 control or CRBN knockout cells; assay type: cell-based, human; conditions: range of doses, seven days
Protocol: (§1) Cells were infected with lentiviruses encoding sgRNAs or treated with compounds as described. Colony assays were performed by replating cells at 500 cells per well in 6-well dishes and grown in regular growth media for 10 d before 100% methanol fixation, 0.05% crystal violet staining, and quantitation. Experiments were completed in triplicate; data shown are the average of three independent experiments. Cell Titer-Glo® assay was performed as per the manufacturer's instructions (Promega®). Briefly, 1000 cells/well were plated into 96-well plates and treated with a range of compound dosing. Cell viability was measured at the noted time points based on luminescence by the Cell Titer-Glo® assay (Promega®) and read on an Envision 2104 (PerkinElmer®, USA) according to the manufacturer's protocol.
sgRNAs targeting individual genes were subcloned by standard methodologies within pLKO.5-EFGP. Kelly, SIMA, BE2C, and NGP cells were infected with lenticas9 followed by blasticidin selection. Stable expression of cas9 was established by western blotting of protein lysates using cas9 antibody (Cell Signaling Technology®). Following infection of pLKO.5-EGFP-sgRNA lentivirus, cells were cultured for the identified times prior to evaluation. BE2C cells were infected with pLC-zsgreen or pLC-CRBN lentiviruses and selected using 500 μg/mL hygromycin (Invitrogen™)

H3K27ac = test: Western blotting of H3K27ac in treated NB cells; assay type: cell-based, human
Protocol: (§2) Cells growing in culture were lysed for whole cell lysates as described in Durbin et al. Nat. Genet. 50:1240-1246 (2018) and Wang et al. Nat. Commun. 10:5622 (2019). Nuclear lysates were prepared using the NE-PER® nuclear lysate kit (Thermo Scientific™) according to the manufacturer's protocol. Chromatin lysates were prepared with the total histone extraction kit (Epigentek). Briefly, equivalent amounts of protein were resolved by western blotting using 4-12% Bis-Tris NuPAGE™ gels (Thermo-Fisher Scientific) prior to transfer, and immunoblotting using primary antibodies to: MYCN (1:1000, Cell Signaling Technology®), H3K27ac (1:1000, Abcam), total H3 (1:1000, Cell Signaling Technology®), EP300 (1:1000, Abcam), CBP (1:500, Cell Signaling Technology®), Cas9 (1:1000, Cell Signaling Technology®), cleaved-PARP1 (1:1000, Cell Signaling Technology), cleaved Caspase-3 (1:1000, Cell Signaling Technology®), β-actin (1:1000, Cell Signaling Technology®), GATA3 (1:1000, EMD Millipore™), TFAP2β (1:1000, Cell Signaling Technology®), Vinculin (1:1000, EMD Millipore™), CRBN (1:1000, Cell Signaling Technology®), HAND2 (1:1000, Santa Cruz Biotechnology). Secondary antibodies were horseradish peroxidase (HRP)-conjugated anti-rabbit or anti-mouse (1:5000, Santa Cruz Biotechnology), incubated prior to exposure to enhanced chemiluminescence reagents (GE, Amersham). For immunoprecipitation, equal amounts of protein were diluted in buffer C as described in Mansour et al. Science 346:1373-1377 (2014) and incubated with antibodies covalently conjugated to Dynabeads™ M-270 beads (Thermo-Fisher Scientific) overnight according to the manufacturer's directions. Antibodies used included: H3K27ac, EP300 (Abcam), CBP, TFAP2β (Cell Signaling Technology®), rabbit immunoglobulin G (IgG) (Santa Cruz Biotechnology®). Immunoprecipitated protein was isolated as per the manufacturer's directions and subjected to western blotting, as described above, or mass spectrometry.

[3] = test system: cleaved caspase-3 and cleaved PARP1; test: Western blotting of apoptosis markers; assay type: cell-based, human
Protocol: as §2

MYCN = test: Western blotting of MYCN (whole lysates and chromatin extracts); assay type: cell-based, human
Protocol: as §2

[4] = test system: pro- and anti-apoptotic mRNA transcripts; test: ERCC spike-in RNA-seq of treated Kelly cells; assay type: cell-based, human; conditions: 500 nM, 24 h
Protocol: For in vitro analyses, total RNA was extracted from control […] or JQAD1 treated Kelly cells using TRIzolTM reagent (Ambion). Prior to extraction, exogenous spike-in of synthetic External RNA Control Consortium (ERCC) RNA controls were added based on cell number (Ambion). Samples were treated with RNAse-free DNAse I and spin purified using the Qiagen® RNeasy Kit (Qiagen®). Purified RNA samples were subjected to library construction with poly-adenylation preparation and sequencing using the Illumina NextSeq® 500 (paired end, 75bp reads). RNA-seq reads were aligned to a reference index containing the sequences of the hg19 revision of the human reference genome and the ERCC spike-in probes using hisat 2.1.0. Expression was quantified using sorted BAMs, a gene reference built using ERCC sizes and RefSeq genes downloaded Jul. 15, 2017, and htseq-count with parameters -I gene_id- stranded=reverse -f bam -m intersection-strict. Read counts were converted to transcripts per million (TPM) and used for cell number-normalization. The expression of all RefSeq genes and ERCC probes was floored at 0.01 and a pseudocount of 0.1 was added to all entries. Values were normalized by equilibrating the expression of the ERCC probes among experiments using normalize.loess from the affy R package. The ERCC-normalized expression of each gene after 24 h of either […] or JQAD1 treatment was compared against its expression in dimethyl sulfoxide (DMSO) treated samples to create two-fold changes.

NB cell lines = test: Colony formation assays of NB cells with EP300/CBP inhibitors; assay type: cell-based, human; conditions: multiple NB cell lines (Kelly, BE2C, NB69, NGP); compared with C646 and CBP30
Protocol: as §1

His-tagged CRBN = His-tagged CRBN (Homo sapiens, UniProt Q96SW2); test: AlphaLISA assay with biotinylated pomalidomide and His-tagged CRBN; assay type: binding; conditions: competition with biotinylated pomalidomide
Chain of His-tagged CRBN (Q96SW2 whole entry): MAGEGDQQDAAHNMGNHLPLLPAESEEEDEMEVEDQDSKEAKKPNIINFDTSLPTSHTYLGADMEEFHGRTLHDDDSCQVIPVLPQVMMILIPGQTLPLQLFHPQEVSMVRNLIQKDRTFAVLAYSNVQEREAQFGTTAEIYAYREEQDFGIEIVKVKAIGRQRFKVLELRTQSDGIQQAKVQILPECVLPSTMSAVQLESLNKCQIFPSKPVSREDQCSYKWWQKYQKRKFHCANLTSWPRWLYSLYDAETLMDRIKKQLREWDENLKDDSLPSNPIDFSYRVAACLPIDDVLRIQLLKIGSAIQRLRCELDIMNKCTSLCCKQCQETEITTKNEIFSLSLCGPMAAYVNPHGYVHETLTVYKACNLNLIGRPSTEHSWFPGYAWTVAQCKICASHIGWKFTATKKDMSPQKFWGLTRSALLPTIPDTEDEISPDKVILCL
Chain of His-tagged CRBN (Q16531 whole entry partner): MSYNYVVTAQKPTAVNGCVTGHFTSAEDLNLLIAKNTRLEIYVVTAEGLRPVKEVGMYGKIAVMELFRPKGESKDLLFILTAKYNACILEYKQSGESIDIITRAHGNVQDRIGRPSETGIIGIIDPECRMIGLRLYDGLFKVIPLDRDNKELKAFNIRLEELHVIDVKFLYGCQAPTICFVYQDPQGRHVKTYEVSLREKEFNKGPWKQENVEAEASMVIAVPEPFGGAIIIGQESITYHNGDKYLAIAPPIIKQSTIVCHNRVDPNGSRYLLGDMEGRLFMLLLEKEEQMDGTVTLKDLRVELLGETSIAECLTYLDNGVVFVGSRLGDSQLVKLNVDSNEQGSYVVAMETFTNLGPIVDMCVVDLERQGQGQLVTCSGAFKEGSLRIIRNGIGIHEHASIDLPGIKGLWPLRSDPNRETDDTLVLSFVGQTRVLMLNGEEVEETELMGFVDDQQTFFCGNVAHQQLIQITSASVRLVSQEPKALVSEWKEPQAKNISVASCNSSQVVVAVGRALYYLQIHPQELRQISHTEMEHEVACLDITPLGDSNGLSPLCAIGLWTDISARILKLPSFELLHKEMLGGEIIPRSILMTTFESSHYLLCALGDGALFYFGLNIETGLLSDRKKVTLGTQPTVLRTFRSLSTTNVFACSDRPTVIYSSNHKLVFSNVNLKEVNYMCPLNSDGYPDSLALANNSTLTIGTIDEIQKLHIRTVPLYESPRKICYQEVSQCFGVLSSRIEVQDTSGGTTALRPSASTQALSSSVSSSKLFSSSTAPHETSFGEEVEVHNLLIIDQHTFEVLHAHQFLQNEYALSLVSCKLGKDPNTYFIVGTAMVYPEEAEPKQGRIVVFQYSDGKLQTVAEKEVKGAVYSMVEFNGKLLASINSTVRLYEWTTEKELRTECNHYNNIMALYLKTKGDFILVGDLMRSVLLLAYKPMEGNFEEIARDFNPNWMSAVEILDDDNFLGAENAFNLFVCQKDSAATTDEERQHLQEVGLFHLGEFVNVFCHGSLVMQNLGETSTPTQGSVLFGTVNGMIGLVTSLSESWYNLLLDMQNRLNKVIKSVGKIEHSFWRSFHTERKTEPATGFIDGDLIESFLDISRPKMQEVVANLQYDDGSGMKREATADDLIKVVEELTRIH
Protocol: To determine whether JQAD1 interacts with the E3 ligase receptor CRBN, the AlphaLISA® platform was used to perform AlphaLISA® fluorescent assays using biotinylated pomalidomide bound to beads and His-tagged CRBN (Yasgar et al. Methods Mol. Biol. 1439:77-98 (2016)). […] Next, biotinylated JQAD1 (Biotin-JQAD1, Scheme 2) was synthesized and incubated with Kelly cell lysates, followed by streptavidin-based purification. […] PROTAC®s may acquire preferential specificity for one of two possible target enzymes due to restricted three-dimensional interactions, as noted in Burslem and Crews, Cell 181:102-14 (2020).
Assays were performed with minimal modifications from the manufacturer's protocol (PerkinElmer®, USA). Briefly, a 2× solution of components with final concentrations of CRBN-DDB1 at 50 nM, Ni-coated Acceptor Beads at 20 μg/ml, and 15 nM biotinylated-pomalidomide were added in […] to 384-well plates (AlphaPlate-384, PerkinElmer®, USA). 100 nL of compound in DMSO from stock plates were added by pin transfer using a Janus Workstation (PerkinElmer®, USA). Streptavidin-coated donor beads (20 μg/ml final) were added to the solution, followed by incubation at room temperature for 1 hour, and reading on an Envision 2104 (PerkinElmer®, USA), by the manufacturer's protocol.

[5] = BE2C 1 μM, Kelly 500 nM, seven days

Row | interaction with CRBN (His-tagged CRBN) | Structure (SMILES) | cell cycle effect ([1]; BE2C, Kelly, NGP cells, within 24 hours) | cell cycle / subG1 effect ([1]; Kelly and NGP cells) | growth of CRBN-knockout Kelly cells [2] | growth of control-edited Kelly cells [2] | H3K27Ac modification after prolonged treatment (H3K27ac; [5]) | H3K27ac modification (H3K27ac; Kelly cells, 24 h) | cleaved caspase 3 and PARP1 after prolonged treatment [3, 5] | apoptosis: cleavage of caspase-3 and PARP1 ([3]; Kelly (1 μM) and NGP (2.5 μM) cells, 12-36 h) | MYCN expression after prolonged treatment (MYCN; [5]) | chromatin-bound MYCN (MYCN; Kelly cells, 0.5 and 1 μM, 24 h, chromatin extracts) | transcript levels of BIM, BID, PUMA, BAX, BCL2 and MCL1 [4] | reduction of neuroblastoma colony formation (NB cell lines)
1 | did not | CNC(=O)Nc1ccc2c(c1)CC[C@@]21OC(=O)N(CC(=O)N(Cc2ccc(F)cc2)[C@@H](C)C(F)(F)F)C1=O [A485] | G1 cell cycle arrest | G1 cell cycle arrest | equivalently inhibited the growth of both CRBN-knockout cells and controls | equivalently inhibited the growth of both CRBN-knockout cells and controls | global loss of the H3K27Ac modification | loss of H3K27ac | induction of cleaved caspase 3 and poly [ADP-ribose] polymerase 1 (PARP1) | little effect on these parameters | loss of MYCN expression | did not show MYCN loss from chromatin extracts up to 1.0 μM | unaffected | most potent compound in reducing neuroblastoma colony formation
2 | efficiently interacted with CRBN | Nc1cccc2c1C(=O)N(C1CCC(=O)NC1=O)C2=O (centres unmarked) [pomalidomide] | – | – | – | – | – | – | – | – | – | – | – | –
